# Source: patent US5668173A, “Method of increasing the conversion of homocysteine to methionine and uses thereof” (priority 1996, dated 1997)
# “Also recorded” adds a separate entry of the source. Like-named read-outs stand apart in the source and are kept apart here.
# Assays:
# [1] = tested on: betaine-homocysteine methyltransferase; settings: cited from earlier work; for methionine produced compared with betaine as methyl donor: saturating levels of substrates, corrected for enzyme concentration
# animals = settings: prior studies; cited from earlier work
# growing rats = settings: cited from earlier work; for replacement of dietary requirement for choline: growing rats, diets lacking methionine but containing homocystine; for food intake and growth: thetins 0.5-0.93% (w/w) of the diet, 3 to 4 weeks
# [2] = target: T1, pig liver betaine-homocysteine methyltransferase (Sus scrofa, UniProt A0A5G2RCW6); assay: Initial rate kinetics of purified pig liver betaine-homocysteine methyltransferase; assay type: biochemical; settings: for Vmax(rel): Table II, relative, corrected for an equivalent amount of enzyme
# T1 construct: given as hexamer, now known as homotetramer
# T1 sequence (A0A5G2RCW6 1-407): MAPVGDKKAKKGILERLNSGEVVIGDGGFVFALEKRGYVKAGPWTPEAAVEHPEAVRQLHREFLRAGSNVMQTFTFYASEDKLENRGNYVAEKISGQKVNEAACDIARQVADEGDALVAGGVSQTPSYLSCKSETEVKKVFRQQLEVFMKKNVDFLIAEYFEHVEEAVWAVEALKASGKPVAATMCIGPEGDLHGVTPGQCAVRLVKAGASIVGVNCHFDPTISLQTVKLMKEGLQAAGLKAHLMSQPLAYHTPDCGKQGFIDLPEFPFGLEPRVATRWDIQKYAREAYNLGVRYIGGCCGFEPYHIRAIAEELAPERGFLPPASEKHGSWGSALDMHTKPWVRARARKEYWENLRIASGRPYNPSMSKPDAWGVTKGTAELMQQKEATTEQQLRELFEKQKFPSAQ
# Experimental: (§1) Betaine-homocysteine methyltransferase activity was measured as described by Finkelstein and Mudd (43) with the following minor modifications. […] Following a 2 hour incubation, samples were chilled to 0° C. and 2.5 mL ice-cold water was added. The samples were loaded onto a 0.5 cm (diameter) column containing 1 mL of Dowex 1-X4 (OH--) resin (100-200 mesh). The unreacted betaine (or dimethylacetothetin) was washed from the column with water (3×5 mL), and dimethylglycine (or methylthioacetate) and methionine eluted into scintiallation vials with 3 mL 1.5 N HCl. Blanks contained all of the reaction components except enzyme and their values were subtracted from the sample values. All samples were assayed in duplicate.
# Michealis and Vmax constants were estimated from plotting initial rate data according to the method of Hanes (44).
# Betaine-homocysteine methyltransferase has been purified to homogeneity from pig liver (45).
# Using purified enzyme, initial rate studies were performed to determine the Michaelis constants of betaine, dimethylacetothetin, and homocysteine and to investigate the kinetic mechanism of the enzyme.
# [3] = tested on: horse betaine-homocysteine methyltrasferase; settings: saturating levels of substrate; purified horse enzyme; cited from earlier work
# Escherichia coli = settings: cited from earlier work
# chickens [4] = settings: dietary; cited from earlier work
# [5] = tested on: hepatic betaine-homocysteine methyltransferase; settings: surfeit dietary levels, crude liver extracts, compared to control; cited from earlier work
# [6] = sulfur amino acid intake optimal; cited from earlier work
# [7] = high dietary levels; cited from earlier work
# [8] = tested on: rat betaine-homocysteine methyltransferase; settings: cited from earlier work
# [9] = cited from earlier work; for urinary level during betaine treatment: urine
# [10] = tested on: human betaine-homocysteine methyltransferase; settings: cited from earlier work
# [11] = target: T1, pig liver betaine-homocysteine methyltransferase; assay: Product inhibition of pig liver betaine-homocysteine methyltransferase activity; assay type: biochemical; settings: for pmol methionine: inhibitor 50 μM, L-homocysteine 50 μM, betaine 25 μM
# Experimental: as §1
# The subsequent metabolism of these products could have significant effects on flux through the betaine-homocysteine methyltransferase reaction because the rate of product removal would determine whether a product accumulates enough to inhibit enzyme activity. When pharmacological doses of betaine is used for the treatment of severe hyperhomocyst(e)inemia, dimethylglycine oxidation appears to be insufficient, and as a result, dimethylglycine accumulates.
# Inhibition pf pig liver betaine-homocysteine methyltransferase
# activity by dimethyglycine ethylthoacetate in the presence of
# It is possible that homocysteine, dimethylglycine, and betaine-homocysteine methyltransferase form an abortive ternary complex.
# [12] = tested on: cystathionine-β-synthase deficiency; settings: cited from earlier work
# pigs = settings: dietary betaine; cited from earlier work
# chickens [13] = settings: cited from earlier work
# [14] = tested on: human betaine-homocysteine methyltransferase; settings: human enzyme containing extracts; read-out: Michealis constant; cited from earlier work
# [15] = tested on: rat betaine-homocysteine methyltransferase; settings: rat enzyme containing extracts; read-out: Michealis constant; cited from earlier work
# cystathionine-β-synthase = settings: dietary cysteine increased; cited from earlier work
# primates = settings: infusion, 3 month period; cited from earlier work
# [16] = substrate: N[C@@H](CCS)C(=O)O; assay: purified protein, by the assay type; settings: other: saturating levels of one substrate while varying the other; betaine 250 μM or L-homocysteine 500 μM fixed
# [17] = substrate: C[S+](C)CC(=O)O; assay: Initial rate kinetics of purified pig liver betaine-homocysteine methyltransferase; assay type: biochemical; settings: other: saturating levels of one substrate while varying the other; betaine 250 μM or L-homocysteine 500 μM fixed
# Experimental: (§2) Betaine-homocysteine methyltransferase activity was measured as described by Finkelstein and Mudd (43) with the following minor modifications. […] Following a 2 hour incubation, samples were chilled to 0° C. and 2.5 mL ice-cold water was added. The samples were loaded onto a 0.5 cm (diameter) column containing 1 mL of Dowex 1-X4 (OH--) resin (100-200 mesh). […] Blanks contained all of the reaction components except enzyme and their values were subtracted from the sample values. All samples were assayed in duplicate.
# [18] = substrate: C[N+](C)(C)CC(=O)O; assay: as above; assay type: biochemical; settings: other: saturating levels of one substrate while varying the other; betaine 250 μM or L-homocysteine 500 μM fixed
# Experimental: as §2
molecule,measurement,setting,value
C[S+](C)CC(=O)O [dimethylacetothetin],methionine produced compared with betaine as methyl donor,[1],more methionine was produced
same,toxicity to animals,animals,non-toxic to animals
same,replacement of dietary requirement for choline,growing rats,can replace the dietary requirement for choline; also recorded: replace the dietary requirement for choline (or betaine)
same,Vmax(rel),[2],7
same,"rate of methylation of homocysteine, faster than with betaine","[2]; equimolar concentrations as betaine, inferred from Vmax/Km",at least 700%
same,Vmax/Km compared with betaine,[2]; greater than that for betaine,7 fold
same,relative Vmax compared with betaine,[2]; greater than when betaine was used,47 fold
same,specificity (Vmax/Km) compared with betaine,[2]; initial rate studies,greater specificity
same,increase in methionine production compared to betaine,[3],350 fold
same,effectiveness as osmolyte compared with betaine,Escherichia coli,equally effective as betaine
O=S(=O)(O)O [sulfate],cystine requirements,chickens [4],decrease cystine requirements
CSCC[C@H](N)C(=O)O [methionine],hepatic betaine-homocysteine methyltransferase activity,[5],higher levels of betaine-homocysteine methyltransferase activity
same,absorbed methionine converted to cysteine or completely oxidized,[6],about 30%
same,absorbed methionine retained by the animal,[6],about 70%
same,toxicity,[7],most toxic of all amino acids required for protein synthesis
CN(C)CC(=O)O [dimethylglycine],inhibition of rat betaine-homocysteine methyltransferase,[8],potent inhibitor
same,urinary level during betaine treatment,[9],dramatic increase
same,inhibition of methionine production,[10]; 10 μM dimethylglycine,50%
same,inhibition of human betaine-homocysteine methyltransferase,[10],potent inhibitor
same,activity at 50 µM,[11],30%
same,type of inhibition relative to homocysteine,"[11]; Dixon plots, betaine 25 μM or 250 μM, L-homocysteine varied",uncompetitive inhibitor; also recorded: uncompetitive inhibition
same,pmol methionine,[11],208 pmol
same,inhibition of pig betaine-homocysteine methyltransferase,[11]; product inhibition studies,potent inhibitor
C[N+](C)(C)CCO [choline],food intake and growth,growing rats,not different among experimental groups
CSCCC(=O)O [3-methylthiopropionate],toxicity,[7],produces toxic symptoms identical to those produced by excess methionine consumption
CSCC(=O)O [methylthioacetate],activity at 50 µM,[11],59%
same,pmol methionine,[11],416 pmol
same,affinity for betaine-homocysteine methyltransferase relative to dimethylglycine,[11]; than dimethylglycine,lower affinity
vitamin B6,individuals non-responsive to vitamin B6,[12],50%
same,individuals responding to supplemental B6,[12],approximately 50%
C[N+](C)(C)CC(=O)O [betaine],Kcat of betaine-dependent reaction,[1],very low Kcat
same,Km,"[1]; prior studies, source of enzyme not stated",20 to 50 µM
same,hepatic betaine-homocysteine methyltransferase activity,[5],higher levels of betaine-homocysteine methyltransferase activity
same,carcass fat,pigs,can reduce carcass fat
same,carcass fat,"chickens [13]; dietary betaine, chickens",can reduce carcass fat
same,treatment of diarrhea and wet litter,chickens [13]; fowl,effective in the treatment of diarrhea and wet litter
same,replacement of dietary requirement for choline,growing rats,can replace the dietary requirement for choline
same,food intake and growth,growing rats,not different among experimental groups
same,normalization of plasma homocysteine,[9]; betaine treatment of severe hyperhomocyst(e)inemia,rarely attained; also recorded: usually does not fall within the normal range; also recorded: does not usually lower plasma homocysteine to within the normal range
same,plasma homocysteine,"[9]; pharmacological doses of betaine, hyperhomocyst(e)inemia",reduce plasma homocysteine; also recorded: generally lowers plasma homocysteine compared to pretreatment levels
same,urinary level during betaine treatment,[9],dramatic increase
same,Vmax(rel),[2],1
same,Km,[14],25 to 50 µM
same,Km,[15],25 to 50 µM
N[C@@H](CS)C(=O)O [cysteine],cystathionine-β-synthase activity and mRNA levels,cystathionine-β-synthase,decrease
C[S+](C)CCC(=O)O [dimethylpropiothetin],Vmax compared with betaine-dependent reaction,[1]; previous studies,higher Vmax
same,Vmax compared with dimethylacetothetin-dependent reaction,[1]; previous studies,lower Vmax
same,methionine produced compared with betaine as methyl donor,[1],more methionine was produced
same,toxicity to animals,animals,non-toxic to animals
same,replacement of dietary requirement for choline,growing rats; listed as dimethylpropriothetin,can replace the dietary requirement for choline; also recorded: replace the dietary requirement for choline (or betaine)
same,increase in methionine production compared to betaine,[3],54 fold
N[C@@H](CCS)C(=O)O [homocysteine],vascular lesions,primates,vascular lesions have been induced in primates
same,Km,[14],25 to 50 µM
same,Km,[15],25 to 50 µM
"pig liver betaine-homocysteine methyltransferase (Sus scrofa) (protein, given as hexamer, now known as homotetramer) MAPVGDKKAKKGILERLNSGEVVIGDGGFVFALEKRGYVKAGPWTPEAAVEHPEAVRQLHREFLRAGSNVMQTFTFYASEDKLENRGNYVAEKISGQKVNEAACDIARQVADEGDALVAGGVSQTPSYLSCKSETEVKKVFRQQLEVFMKKNVDFLIAEYFEHVEEAVWAVEALKASGKPVAATMCIGPEGDLHGVTPGQCAVRLVKAGASIVGVNCHFDPTISLQTVKLMKEGLQAAGLKAHLMSQPLAYHTPDCGKQGFIDLPEFPFGLEPRVATRWDIQKYAREAYNLGVRYIGGCCGFEPYHIRAIAEELAPERGFLPPASEKHGSWGSALDMHTKPWVRARARKEYWENLRIASGRPYNPSMSKPDAWGVTKGTAELMQQKEATTEQQLRELFEKQKFPSAQ",Km,[16],32 µM
same,Km,[17],155 µM
same,Km,[18],23 µM
